According to ChEMBL document CHEMBL1201862, “PubChem BioAssay data set” (2004):
pEC50: −log10 of the molar value. The source made the active and inactive calls.

Key:
[1] = molecular target: T1, Voltage-dependent T-type calcium channel subunit alpha-1H (Homo sapiens, UniProt O95180); experiment: human CACNA1H calcium influx blockade – cell-based, synthetic library set 2, HEK293 HH8, Fluo-4, SAR follow-up (AID 493023); format: functional
Tumor necrosis factor = Tumor necrosis factor (Homo sapiens, UniProt P01375); experiment: analog potency on TNFa NF-kB signaling – cell-based, set 3, SAR follow-up (AID 2801); format: functional
HEK293 = experiment: SAR analysis of compounds that are cytotoxic to HEK293 - Set 3. [Related pubchem assays (depositor defined):AID1575, AID1578, AID1848, AID1849, AID2001, AID2333, AID2334, AID2335, AID2337, AID2469]; format: functional, cell-based; settings: Homo sapiens
[2] = molecular target: Nucleotide-binding oligomerization domain-containing protein 2 (Homo sapiens, UniProt Q9HC29); experiment: inhibition of MDP-driven NOD2 NF-kB reporter – cell-based, set 3, SAR follow-up (AID 2799); format: functional
Chain of Nucleotide-binding oligomerization domain-containing protein 2 (Q9HC29 whole entry, the tested form may be a part): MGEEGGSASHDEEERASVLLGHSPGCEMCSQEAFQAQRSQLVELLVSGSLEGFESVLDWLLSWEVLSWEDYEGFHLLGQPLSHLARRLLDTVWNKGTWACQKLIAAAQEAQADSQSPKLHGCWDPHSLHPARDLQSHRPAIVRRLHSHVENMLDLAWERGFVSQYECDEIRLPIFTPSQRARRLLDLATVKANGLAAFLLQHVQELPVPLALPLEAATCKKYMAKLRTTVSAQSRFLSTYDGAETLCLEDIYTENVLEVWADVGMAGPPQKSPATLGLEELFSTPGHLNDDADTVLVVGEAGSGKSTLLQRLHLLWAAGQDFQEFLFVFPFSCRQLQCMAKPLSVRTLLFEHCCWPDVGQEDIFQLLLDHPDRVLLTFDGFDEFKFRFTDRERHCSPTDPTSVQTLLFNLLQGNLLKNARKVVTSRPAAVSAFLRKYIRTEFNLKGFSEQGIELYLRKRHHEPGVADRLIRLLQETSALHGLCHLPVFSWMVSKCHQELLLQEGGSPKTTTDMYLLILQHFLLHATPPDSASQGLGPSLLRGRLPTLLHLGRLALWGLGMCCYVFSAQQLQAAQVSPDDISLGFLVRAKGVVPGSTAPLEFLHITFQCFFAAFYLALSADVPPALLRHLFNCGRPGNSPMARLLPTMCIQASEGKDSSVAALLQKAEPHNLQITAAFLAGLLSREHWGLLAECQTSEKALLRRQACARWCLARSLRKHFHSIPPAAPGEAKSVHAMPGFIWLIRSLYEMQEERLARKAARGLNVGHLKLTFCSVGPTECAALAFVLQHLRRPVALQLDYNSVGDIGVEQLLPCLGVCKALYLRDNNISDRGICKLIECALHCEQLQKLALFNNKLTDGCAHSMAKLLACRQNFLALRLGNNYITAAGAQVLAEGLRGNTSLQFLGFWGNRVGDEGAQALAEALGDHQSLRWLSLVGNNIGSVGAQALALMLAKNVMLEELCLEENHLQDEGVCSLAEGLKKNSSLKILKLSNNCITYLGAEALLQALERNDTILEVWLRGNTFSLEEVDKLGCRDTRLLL

[3] = molecular target: T2, Nucleotide-binding oligomerization domain-containing protein 1 (Homo sapiens, UniProt Q9Y239); experiment: SAR analysis of compounds that inhibit NOD1 - Set 3. [Related pubchem assays (depositor defined):AID1566, AID1575, AID1578, AID1849, AID1852, AID2333, AID2335, AID2466]; format: functional
T2 sequence (Q9Y239 whole entry): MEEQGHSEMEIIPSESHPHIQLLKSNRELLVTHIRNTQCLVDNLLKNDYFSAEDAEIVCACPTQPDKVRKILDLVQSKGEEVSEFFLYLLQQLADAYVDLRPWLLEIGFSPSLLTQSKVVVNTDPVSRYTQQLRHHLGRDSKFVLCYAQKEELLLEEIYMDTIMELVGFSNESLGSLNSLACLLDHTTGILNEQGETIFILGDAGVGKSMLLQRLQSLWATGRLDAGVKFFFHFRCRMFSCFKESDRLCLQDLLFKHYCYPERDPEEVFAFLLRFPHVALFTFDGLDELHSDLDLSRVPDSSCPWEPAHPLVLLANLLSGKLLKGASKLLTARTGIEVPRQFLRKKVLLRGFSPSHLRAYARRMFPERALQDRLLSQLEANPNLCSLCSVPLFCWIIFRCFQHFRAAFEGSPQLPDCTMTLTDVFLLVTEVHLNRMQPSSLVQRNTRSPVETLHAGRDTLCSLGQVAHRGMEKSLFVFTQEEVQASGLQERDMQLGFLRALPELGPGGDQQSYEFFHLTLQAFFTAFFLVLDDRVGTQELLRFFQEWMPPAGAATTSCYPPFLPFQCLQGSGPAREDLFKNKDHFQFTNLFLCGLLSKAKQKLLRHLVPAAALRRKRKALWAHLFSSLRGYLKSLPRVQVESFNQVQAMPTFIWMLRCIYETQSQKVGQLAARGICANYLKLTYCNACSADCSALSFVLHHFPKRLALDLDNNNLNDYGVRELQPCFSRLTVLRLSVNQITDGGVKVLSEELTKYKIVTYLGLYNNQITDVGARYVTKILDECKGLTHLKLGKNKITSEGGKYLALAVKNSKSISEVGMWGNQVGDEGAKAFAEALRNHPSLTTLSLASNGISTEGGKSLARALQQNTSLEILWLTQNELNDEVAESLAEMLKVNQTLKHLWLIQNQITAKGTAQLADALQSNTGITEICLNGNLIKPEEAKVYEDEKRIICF

[4] = molecular target: T1, Voltage-dependent T-type calcium channel subunit alpha-1H; experiment: inhibition of CACNA1H calcium flux – cell-based, SynthLib3 library, HEK293 Cav3.2, fluorescence (AID 493041); format: functional
[5] = molecular target: DNA damage-inducible transcript 3 protein (Mus musculus, UniProt P35639); format: functional, Cricetulus griseus
Chain of DNA damage-inducible transcript 3 protein (P35639 whole entry): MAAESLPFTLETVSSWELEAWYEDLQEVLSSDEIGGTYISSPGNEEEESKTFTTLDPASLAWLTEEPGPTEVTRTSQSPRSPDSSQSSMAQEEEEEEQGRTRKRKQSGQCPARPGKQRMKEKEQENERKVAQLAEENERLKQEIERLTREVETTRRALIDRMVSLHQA

[6] = molecular target: FAD-linked sulfhydryl oxidase ALR (Homo sapiens, UniProt P55789); experiment: ALR-catalysed DTT oxidation blockers – biochemical, H2O2 detection, luminescence, cherry-pick, dose response (AID 493248)
BJ [7] = experiment: cells; format: functional, cell-based; settings: Homo sapiens
BJ [8] = experiment: BJ-TERT-LT-ST fibroblast viability loss – cell-based, RAS-independent, luminescence, dose response (AID 1935); format: functional; settings: Homo sapiens;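 note: BJ fibroblasts immortalized with TERT plus LT and ST oncogenes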
[9] = DRD fibroblast viability loss – cell-based, non-viral oncogenic, luminescence, dose response (AID 1934); format: functional; settings: Homo sapiens
BJ [10] = experiment: BJ-TERT fibroblast viability loss – cell-based, RAS-independent, luminescence, dose response (AID 1933); format: functional; settings: Homo sapiens
[11] = molecular target: T3, Kappa-type opioid receptor (Homo sapiens, UniProt P41145); format: functional
T3 sequence (P41145 whole entry): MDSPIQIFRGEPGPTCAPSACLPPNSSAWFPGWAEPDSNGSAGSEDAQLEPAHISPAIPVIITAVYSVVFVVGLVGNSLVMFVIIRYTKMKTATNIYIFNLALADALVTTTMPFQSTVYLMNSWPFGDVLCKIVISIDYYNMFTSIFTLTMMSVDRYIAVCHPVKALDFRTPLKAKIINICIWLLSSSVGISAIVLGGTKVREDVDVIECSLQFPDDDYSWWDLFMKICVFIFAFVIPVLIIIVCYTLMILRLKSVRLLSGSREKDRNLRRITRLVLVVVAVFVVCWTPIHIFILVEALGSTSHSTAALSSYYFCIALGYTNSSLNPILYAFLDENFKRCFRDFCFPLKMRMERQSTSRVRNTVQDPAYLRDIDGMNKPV

[12] = molecular target: T3, Kappa-type opioid receptor; format: functional; remark: listed apart in the source
[13] = molecular target: T4, Delta-type opioid receptor (Homo sapiens, UniProt P41143); experiment: HTS Image-Based Screen for Antagonists of the DOR Receptor. [Related pubchem assays (depositor defined):AID1777, AID1785, AID1786, AID2133]; format: functional
T4 sequence (P41143 whole entry): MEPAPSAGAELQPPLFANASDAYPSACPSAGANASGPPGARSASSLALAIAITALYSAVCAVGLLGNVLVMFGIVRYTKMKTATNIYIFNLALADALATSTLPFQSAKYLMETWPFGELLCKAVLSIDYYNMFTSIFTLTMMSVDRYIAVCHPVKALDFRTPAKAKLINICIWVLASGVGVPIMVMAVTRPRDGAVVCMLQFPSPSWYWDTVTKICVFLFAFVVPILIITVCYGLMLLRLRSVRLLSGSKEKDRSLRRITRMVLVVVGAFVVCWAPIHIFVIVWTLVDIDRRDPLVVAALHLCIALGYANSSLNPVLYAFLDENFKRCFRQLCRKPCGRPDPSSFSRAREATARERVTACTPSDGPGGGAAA

[14] = molecular target: T4, Delta-type opioid receptor; experiment: HTS Image-Based Screen for Agonists of the DOR Receptor. [Related pubchem assays (depositor defined):AID1777, AID1786, AID2133]; format: functional
Melanocortin receptor 4 = Melanocortin receptor 4 (Homo sapiens, UniProt P32245); format: functional, cell-based;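 note: Cell-based assay with luminescence read-out, confirmatory dose-response testing for agonist activity of biased ligands at MC4R; human U2OS cells with tagged receptor and beta-arrestin; potency of agonists that increase receptor coupling to beta-arrestin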
Chain of Melanocortin receptor 4 (P32245 whole entry): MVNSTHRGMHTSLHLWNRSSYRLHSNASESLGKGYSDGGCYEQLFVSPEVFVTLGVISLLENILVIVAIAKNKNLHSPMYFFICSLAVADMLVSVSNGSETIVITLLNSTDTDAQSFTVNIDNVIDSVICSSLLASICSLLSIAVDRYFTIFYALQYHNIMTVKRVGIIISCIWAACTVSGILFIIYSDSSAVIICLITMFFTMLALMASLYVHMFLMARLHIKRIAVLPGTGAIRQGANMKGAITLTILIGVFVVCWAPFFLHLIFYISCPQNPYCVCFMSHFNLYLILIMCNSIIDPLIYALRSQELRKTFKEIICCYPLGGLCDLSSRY

Mu-type opioid receptor = Mu-type opioid receptor (Homo sapiens, UniProt P35372); experiment: HTS Image-Based Screen for Agonists of the MOR Receptor. [Related pubchem assays (depositor defined):AID1777, AID1785, AID1786, AID2133]; format: functional;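 note: imaging of beta-arrestin GFP recruitment into spots after receptor activation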
Chain of Mu-type opioid receptor (P35372 whole entry): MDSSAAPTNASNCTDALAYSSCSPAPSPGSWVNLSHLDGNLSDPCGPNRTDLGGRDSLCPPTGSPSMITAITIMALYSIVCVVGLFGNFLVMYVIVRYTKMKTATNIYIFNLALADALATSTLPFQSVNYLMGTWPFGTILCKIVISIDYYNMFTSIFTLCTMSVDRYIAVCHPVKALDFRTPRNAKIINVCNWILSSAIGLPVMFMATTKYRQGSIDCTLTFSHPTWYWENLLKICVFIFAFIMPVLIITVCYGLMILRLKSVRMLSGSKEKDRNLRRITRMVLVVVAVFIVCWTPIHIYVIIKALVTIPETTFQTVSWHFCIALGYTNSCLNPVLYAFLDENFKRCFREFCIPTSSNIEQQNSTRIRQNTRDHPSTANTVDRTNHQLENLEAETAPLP

T1 sequence (O95180 whole entry): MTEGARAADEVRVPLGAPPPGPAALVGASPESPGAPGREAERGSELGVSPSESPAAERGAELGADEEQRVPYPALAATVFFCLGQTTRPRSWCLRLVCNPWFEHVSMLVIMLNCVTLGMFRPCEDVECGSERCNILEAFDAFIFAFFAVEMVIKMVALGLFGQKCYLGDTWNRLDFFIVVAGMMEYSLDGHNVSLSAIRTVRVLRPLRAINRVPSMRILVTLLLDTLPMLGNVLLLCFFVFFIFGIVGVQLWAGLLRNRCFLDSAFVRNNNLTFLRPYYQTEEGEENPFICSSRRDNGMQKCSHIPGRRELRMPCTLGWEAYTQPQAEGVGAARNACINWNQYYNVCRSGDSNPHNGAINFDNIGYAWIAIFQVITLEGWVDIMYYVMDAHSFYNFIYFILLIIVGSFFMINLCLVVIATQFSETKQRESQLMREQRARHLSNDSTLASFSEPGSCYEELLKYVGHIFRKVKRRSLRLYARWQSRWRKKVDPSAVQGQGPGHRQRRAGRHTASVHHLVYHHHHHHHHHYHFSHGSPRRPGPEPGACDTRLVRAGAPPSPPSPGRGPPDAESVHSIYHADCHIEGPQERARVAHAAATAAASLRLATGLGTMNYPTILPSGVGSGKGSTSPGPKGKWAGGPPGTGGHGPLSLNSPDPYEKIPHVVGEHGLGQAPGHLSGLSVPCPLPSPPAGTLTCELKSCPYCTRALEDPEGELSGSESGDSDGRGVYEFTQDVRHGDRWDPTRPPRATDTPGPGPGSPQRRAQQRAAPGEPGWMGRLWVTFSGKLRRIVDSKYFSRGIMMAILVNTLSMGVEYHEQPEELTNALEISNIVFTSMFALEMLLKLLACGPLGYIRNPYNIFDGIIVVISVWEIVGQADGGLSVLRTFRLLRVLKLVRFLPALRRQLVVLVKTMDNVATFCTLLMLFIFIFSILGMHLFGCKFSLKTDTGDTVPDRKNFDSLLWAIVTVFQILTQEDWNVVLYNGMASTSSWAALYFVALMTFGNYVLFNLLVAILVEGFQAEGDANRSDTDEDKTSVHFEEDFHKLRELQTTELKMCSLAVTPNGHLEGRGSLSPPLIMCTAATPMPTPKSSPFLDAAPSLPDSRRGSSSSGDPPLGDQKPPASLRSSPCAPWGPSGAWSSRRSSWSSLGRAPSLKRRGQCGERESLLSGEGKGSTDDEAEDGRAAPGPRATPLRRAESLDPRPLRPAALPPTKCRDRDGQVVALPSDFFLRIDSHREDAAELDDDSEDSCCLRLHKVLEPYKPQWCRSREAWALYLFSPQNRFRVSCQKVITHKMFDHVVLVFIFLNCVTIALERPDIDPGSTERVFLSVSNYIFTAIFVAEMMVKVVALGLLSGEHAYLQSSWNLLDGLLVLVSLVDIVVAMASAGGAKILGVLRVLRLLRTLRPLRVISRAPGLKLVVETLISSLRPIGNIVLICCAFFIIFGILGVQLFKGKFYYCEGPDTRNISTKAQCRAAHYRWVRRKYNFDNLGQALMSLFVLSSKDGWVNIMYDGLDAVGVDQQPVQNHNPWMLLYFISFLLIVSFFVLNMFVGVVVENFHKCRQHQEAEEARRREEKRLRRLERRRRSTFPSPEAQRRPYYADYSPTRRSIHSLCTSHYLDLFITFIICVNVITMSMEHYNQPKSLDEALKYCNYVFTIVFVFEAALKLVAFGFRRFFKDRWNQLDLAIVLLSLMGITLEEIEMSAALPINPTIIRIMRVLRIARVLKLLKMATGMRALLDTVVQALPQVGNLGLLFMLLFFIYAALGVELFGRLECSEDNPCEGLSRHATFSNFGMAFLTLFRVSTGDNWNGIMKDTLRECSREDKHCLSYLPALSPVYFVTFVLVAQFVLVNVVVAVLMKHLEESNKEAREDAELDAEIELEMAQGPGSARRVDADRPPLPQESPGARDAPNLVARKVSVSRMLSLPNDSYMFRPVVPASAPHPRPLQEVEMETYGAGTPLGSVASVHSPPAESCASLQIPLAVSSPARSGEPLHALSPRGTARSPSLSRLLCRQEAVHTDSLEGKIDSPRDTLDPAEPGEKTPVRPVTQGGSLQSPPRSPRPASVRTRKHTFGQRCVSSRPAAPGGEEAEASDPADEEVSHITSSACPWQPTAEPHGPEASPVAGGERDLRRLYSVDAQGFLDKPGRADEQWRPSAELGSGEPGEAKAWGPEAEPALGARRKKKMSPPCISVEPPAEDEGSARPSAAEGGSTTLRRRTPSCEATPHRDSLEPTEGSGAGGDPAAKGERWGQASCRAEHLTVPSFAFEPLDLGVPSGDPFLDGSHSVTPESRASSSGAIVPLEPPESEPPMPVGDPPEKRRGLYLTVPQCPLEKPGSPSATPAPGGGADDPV

In the case of `O=C(COc1ccc(F)cc1Cl)N[C@@H]1CCCN(Cc2ccccc2)C1`, the EC50 [1] was 10 µM (active).

For `CC(C)C(=O)N(C)C(c1ccccc1)c1c[nH]c2ccccc12` (stereo not drawn), the IC50 (Tumor necrosis factor) was > 20 µM (inactive), the IC50 (HEK293) was > 20 µM (inactive) and the IC50 [2] was > 20 µM (inactive). For the same compound, the IC50 [3] was > 20 µM (inactive).

With `CCC(C)CN1CCC[C@H](NC(=O)COc2ccc(F)c(Cl)c2)C1` (stereo partly drawn) the EC50 [4] was 10 µM (active).

In the case of `COc1ccc(N/N=C(\C=N\O)C(=O)c2ccc(OC)cc2)cc1`, the “Absolute IC50 (CHOP)” value [5] was 10 µM, the AC50 [6] was 0.009 µM (active) and the EC50 (BJ [7]) was 49 µM (active). The EC50 (BJ [8]) was 2.41 µM (inconclusive), the EC50 [9] was 1.15 µM (active) and the EC50 (BJ [10]) was 1.56 µM (inconclusive).

For `Nc1ccc(C2(c3ccc(N)cc3)c3ccccc3-c3ccccc32)cc1`, the pEC50 [11] was under 4.46, the pEC50 [12] was 5.08 and the IC50 [13] was > 32 µM (inactive). For the same compound, the EC50 [14] was > 32 µM (inactive), the EC50 (Melanocortin receptor 4) was > 89.2 µM (inactive) and the EC50 (Mu-type opioid receptor) was > 32 µM (inactive).
